# Data published in PMC12058896, “Potent antimicrobial activity of hydrogel loaded with the antimicrobial peptide, D-Bac8c^2,5 Leu, against monospecies and polymicrobial biofilms of Staphylococcus aureus and Pseudomonas aeruginosa” (Frontiers in Microbiology, 2025).
# Non-standard residues stand in square brackets, D forms with d. Residues, ends and D or L forms follow the SMILES beside them.
# Key:
# [1] = system: monospecies and polymicrobial biofilms of S. aureus and P. aeruginosa; assay: Duckworth biofilm flow device (dynamic biofilm); assay type: cell-based; settings: biofilms grown 1 and 5 days under shear flow in SWF; 256 μg/mL for 6 h
# Protocol: The Duckworth biofilm flow device was set-up and run following the method described by [Duckworth et al. (2018)]. Twelve disks of agar at 1.5% (w/v) concentration were cut using a 10 mm French press punch and placed into designated wells in the flow device. Cellulose filter (13 mm, 0.22 μm, Merck Millipore, Ireland) was placed on top of each agar disk, and was inoculated with 10 μL of the bacterial inoculum. The device was placed in an incubator at 37°C while a continuous flow of SWF was pumped into the device at a flow rate of 0.322 mL/min for 24 h or 5 days using a peristaltic pump (Supplementary Figure S2). Subsequently, topical treatment with D-Bac8c^2,5 Leu was introduced and allowed to run for a further 6 h. The biofilm formed on the cellulose filters were collected and suspended in 1 mL PBS. Colony counting was performed as described above. The Duckworth biofilm flow device was prepared and run as described above with slight modification. A solution of agarose dissolved in SWF (0.3 g in 20 mL), mixed with bacterial cultures at 10^8 CFU/mL and then supplemented with 3% FBS and 0.15% collagen (Merck, Ireland) was allowed to solidify at room temperature and then 12 disks of that was cut using a 10 mm French press punch. The disks were then placed into designated wells and experiments run as previously described. […]
# [2] = system: USA300; assay: microbe, parasite or virus in culture; assay type: cell-based, Staphylococcus aureus; settings: USA300, 18 h
# Protocol: (§1) Strains used in the study were isolates of methicillin-resistant Staphylococcus aureus (MRSA); USA300 LAC, BH1CC ([O’Neill et al., 2007]), methicillin-sensitive S. aureus (MSSA); SH1000 ([Horsburgh et al., 2002]) and BH48 ([O’Neill et al., 2007]); and Pseudomonas aeruginosa PAO1 (ATCC […]). Clinical isolates were obtained from a previous collection of isolates of infected wounds. Bacteria were grown aerobically at 37°C with shaking at 200 rpm in Brain Heart Infusion (BHI, Oxoid, Ireland). Selective media, Mannitol Salt Agar (SLS, Ireland) and MacConkey agar (SLS, Ireland), for re-isolation of bacterial strains from mixed species biofilms were used. Bolton Broth (Fannin, Ireland) supplemented with 50% bovine heparin plasma (TebuBio, UK), and 5% laked horse blood (Sigma-Aldrich, Ireland) was used to mimic in vivo conditions for static antibiofilm testing. For dynamic biofilm growth Simulated Wound Fluid (SWF) prepared as described previously with slight modification, 3% v/v fetal bovine serum in maximum recovery diluent (Merck, Ireland) was used ([Barbour et al., 2016]).
# (§2) Minimum inhibitory concentration (MIC) was determined aerobically using the broth microdilution assay as recommended by the Clinical and Laboratory Standards Institute (CLSI) ([CLSI, 2018]). Briefly, 2-fold serial dilutions of the antimicrobial peptides of interest and conventional antibiotics were prepared in Mueller-Hinton broth (MHB) (Merck, Ireland) in a 96-well round bottom polypropylene plate (ThermoFisher, Ireland). Diluted bacterial suspensions in sterile PBS (Sigma, Ireland) were added to each well resulting in a final cell density of approximately 10^5 colony forming units (CFU)/mL. Microplates were incubated statically for 18 h at 37°C. In each assay, inoculated medium without antimicrobials and uninoculated medium served as growth and sterility controls, respectively. Conventional antibiotics, gentamicin (Merck, Ireland) and mupirocin (SLS, UK), were tested as comparator antimicrobials. The MIC value was defined as the lowest antimicrobial concentration showing no visible growth relative to positive (no antimicrobial agent) and negative controls (BHI alone). Experiments were conducted in triplicate, and independent replicates were performed three times to yield n = 3.
# [3] = system: SH1000; assay: microbe, parasite or virus in culture; assay type: cell-based, Staphylococcus aureus; settings: SH1000, 18 h
# Protocol: as §1, §2
# [4] = system: BH1CC; assay: microbe, parasite or virus in culture; assay type: cell-based, Staphylococcus aureus; settings: 18 h
# Protocol: as §1, §2
# [5] = system: BH48; assay: microbe, parasite or virus in culture; assay type: cell-based, Staphylococcus aureus; settings: 18 h
# Protocol: as §1, §2
# [6] = system: TNFα; settings: ref Zapotoczna et al. (2017); cited from earlier work
# Text: Similarly, here we verified that D-Bac8c^2,5 Leu has low toxicity to human monocytes THP-1.
structure (smiles),measurement,setting,value
"CC(C)C[C@@H](NC(=O)[C@H](N)CCCNC(=N)N)C(=O)N[C@H](Cc1c[nH]c2ccccc12)C(=O)N[C@@H](C(=O)N[C@H](CC(C)C)C(=O)N[C@H](Cc1c[nH]c2ccccc12)C(=O)N[C@H](CCCNC(=N)N)C(=O)N[C@H](CCCNC(=N)N)C(N)=O)C(C)C [D-Bac8c^2,5 Leu] (H-[dR][dL][dW][dV][dL][dW][dR][dR]-NH2; N-terminus assumed)",reduction in viability,[1],≤ 3 log
same,MIC,[2],8 µg/mL
same,MIC,[3],8 µg/mL
same,MIC,[4],8 µg/mL
same,MIC,[5],8 µg/mL
same,effect on TNFα,[6],without affecting
